Results published in patent US8076487B2, “Pyridone derivative and herbicide” (Kumiai Chemical Industry Co., Ltd., priority 2006, dated 2011).

Experiments:
Format in all cases: in vivo
[1] = tested on: Japanese bulrush (Scirpus juncoides Roxb.); assay: Test Example 1: herbicidal effect by soil application to paddy field; conditions: paddy field soil application; active ingredient 1,000 g per 1 hectare; wettable powder added dropwise to water surface the day after sowing; examined on the 21st day after application
Outline: (§1)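 Under greenhouse conditions, seeds sown on puddled paddy soil in 100 cm2 pots under 3 cm of standing water received the test compound; injury was assessed with a standard scoring scheme three weeks (day 21) after treatment.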

[2] = tested on: early watergrass (Echinochloa oryzicola Vasing); assay: as above; conditions: paddy field soil application; active ingredient 1,000 g per 1 hectare; wettable powder added dropwise to water surface the day after sowing; examined on the 21st day after application
Outline: as §1

[3] = tested on: heartshape false pickerelweed (Monochoria vaginalis (Burm.f.) C.Presl); assay: as above; conditions: paddy field soil application; active ingredient 1,000 g per 1 hectare; wettable powder added dropwise to water surface the day after sowing; examined on the 21st day after application
Outline: as §1

[4] = tested on: barnyardgrass (Echinochloa crus-galli (L.) P. Beauv. var. crus-galli); assay: Test Example 2: herbicidal effect by soil application to upland field; conditions: soil surface spray, upland field soil, 1,000 g active ingredient per hectare, 21st day after application
Outline: (§2)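 Soil surface treatment after sowing: wettable powder in water, 1,000 g a.i./ha, spray volume 1,000 L/ha. Greenhouse. Scored on a standard herbicidal scale at day 21.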

[5] = tested on: green foxtail (Setaria viridis (L.) P. Beauv.); assay: as above; conditions: soil surface spray, upland field soil, 1,000 g active ingredient per hectare, 21st day after application
Outline: as §2

[6] = tested on: slender amaranth (Amaranthus viridis L.); assay: as above; conditions: soil surface spray, upland field soil, 1,000 g active ingredient per hectare, 21st day after application
Outline: as §2

[7] = tested on: velvetleaf (Abutilon theophrasti medicus); assay: as above; conditions: soil surface spray, upland field soil, 1,000 g active ingredient per hectare, 21st day after application
Outline: as §2

[8] = tested on: barnyardgrass (Echinochloa crus-galli (L.) P. Beauv. var. crus-galli); assay: Test Example 3: herbicidal effect by application to upland field (foliage treatment); conditions: foliage treatment, 1,000 g active ingredient per 1 hectare, 14th day after application, greenhouse
Outline: (§3)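 A single foliar application of a water-diluted wettable powder, at 1,000 g of active ingredient per hectare, was made to plants raised for two weeks from seed in field soil. Herbicidal activity was judged visually after a further 14 days in the greenhouse.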

[9] = tested on: green foxtail (Setaria viridis (L.) P. Beauv.); assay: as above; conditions: foliage treatment, 1,000 g active ingredient per 1 hectare, 14th day after application, greenhouse
Outline: as §3

[10] = tested on: slender amaranth (Amaranthus viridis L.); assay: as above; conditions: foliage treatment, 1,000 g active ingredient per 1 hectare, 14th day after application, greenhouse
Outline: as §3

[11] = tested on: velvetleaf (Abutilon theophrasti medicus); assay: as above; conditions: foliage treatment, 1,000 g active ingredient per 1 hectare, 14th day after application, greenhouse
Outline: as §3

SMILES	herbicidal effect, Scirpus juncoides Roxb. [1]	herbicidal effect, Echinochloa oryzicola Vasing [2]	herbicidal effect, Monochoria vaginalis (Burm. f.) C. Presl [3]	herbicidal effect (index), Barnyardgrass [4]	herbicidal effect (index), Green Foxtail [5]	herbicidal effect (index), Slender Amaranth [6]	herbicidal effect (index), Velvetleaf [7]	herbicidal effect, Barnyardgrass [8]	herbicidal effect, Green Foxtail [9]	herbicidal effect, Slender Amaranth [10]	herbicidal effect, Velvetleaf [11]
CC1(C)CCC(O)=C(C(=O)c2ccc(C(F)(F)F)n(-c3cc(F)cc(F)c3)c2=O)C1=O [II-40]	5 (90% or more of herbicidal effect and crop phytotoxicity)	5 (90% or more of herbicidal effect and crop phytotoxicity)	5 (90% or more of herbicidal effect and crop phytotoxicity)	5 (90% or more of herbicidal effect and crop phytotoxicity)	5 (90% or more of herbicidal effect and crop phytotoxicity)	5 (90% or more of herbicidal effect and crop phytotoxicity)	5 (90% or more of herbicidal effect and crop phytotoxicity)	5 (90% or more of herbicidal effect and crop phytotoxicity)	4 (70 to less than 90% of herbicidal effect and crop phytotoxicity)	5 (90% or more of herbicidal effect and crop phytotoxicity)	5 (90% or more of herbicidal effect and crop phytotoxicity)
CC1(C)C(=O)C(C(=O)c2ccc(C(F)(F)F)n(-c3ccccc3)c2=O)=C(O)C(C)(C)C1=O [II-41]	4 (70 to less than 90% of herbicidal effect and crop phytotoxicity)	5 (90% or more of herbicidal effect and crop phytotoxicity)	5 (90% or more of herbicidal effect and crop phytotoxicity)	4 (70 to less than 90% of herbicidal effect and crop phytotoxicity)	5 (90% or more of herbicidal effect and crop phytotoxicity)	5 (90% or more of herbicidal effect and crop phytotoxicity)	5 (90% or more of herbicidal effect and crop phytotoxicity)	5 (90% or more of herbicidal effect and crop phytotoxicity)	5 (90% or more of herbicidal effect and crop phytotoxicity)	4 (70 to less than 90% of herbicidal effect and crop phytotoxicity)	5 (90% or more of herbicidal effect and crop phytotoxicity)
Cn1c(C(F)(F)F)ccc(C(=O)C2=C(O)C3CCC(C3)C2=O)c1=O (stereo not shown) [III-1]	5 (90% or more of herbicidal effect and crop phytotoxicity)	5 (90% or more of herbicidal effect and crop phytotoxicity)	5 (90% or more of herbicidal effect and crop phytotoxicity)	5 (90% or more of herbicidal effect and crop phytotoxicity)	5 (90% or more of herbicidal effect and crop phytotoxicity)	5 (90% or more of herbicidal effect and crop phytotoxicity)	5 (90% or more of herbicidal effect and crop phytotoxicity)	4 (70 to less than 90% of herbicidal effect and crop phytotoxicity)	5 (90% or more of herbicidal effect and crop phytotoxicity)	5 (90% or more of herbicidal effect and crop phytotoxicity)	5 (90% or more of herbicidal effect and crop phytotoxicity)
CCCn1c(C(F)(F)F)ccc(C(=O)C2=C(O)C3CCC(C3)C2=O)c1=O (stereo not shown) [III-3]	5 (90% or more of herbicidal effect and crop phytotoxicity)	5 (90% or more of herbicidal effect and crop phytotoxicity)	5 (90% or more of herbicidal effect and crop phytotoxicity)	5 (90% or more of herbicidal effect and crop phytotoxicity)	5 (90% or more of herbicidal effect and crop phytotoxicity)	5 (90% or more of herbicidal effect and crop phytotoxicity)	5 (90% or more of herbicidal effect and crop phytotoxicity)	5 (90% or more of herbicidal effect and crop phytotoxicity)	5 (90% or more of herbicidal effect and crop phytotoxicity)	5 (90% or more of herbicidal effect and crop phytotoxicity)	5 (90% or more of herbicidal effect and crop phytotoxicity)
O=C(C1=C(O)C2CCC(C2)C1=O)c1ccc(C(F)(F)F)n(C2CC2)c1=O (stereo not shown) [III-5]	5 (90% or more of herbicidal effect and crop phytotoxicity)	5 (90% or more of herbicidal effect and crop phytotoxicity)	5 (90% or more of herbicidal effect and crop phytotoxicity)	5 (90% or more of herbicidal effect and crop phytotoxicity)	5 (90% or more of herbicidal effect and crop phytotoxicity)	5 (90% or more of herbicidal effect and crop phytotoxicity)	5 (90% or more of herbicidal effect and crop phytotoxicity)	5 (90% or more of herbicidal effect and crop phytotoxicity)	5 (90% or more of herbicidal effect and crop phytotoxicity)	5 (90% or more of herbicidal effect and crop phytotoxicity)	5 (90% or more of herbicidal effect and crop phytotoxicity)
CCCCn1c(C(F)(F)F)ccc(C(=O)C2=C(O)C3CCC(C3)C2=O)c1=O (stereo not shown) [III-6]	5 (90% or more of herbicidal effect and crop phytotoxicity)	5 (90% or more of herbicidal effect and crop phytotoxicity)	5 (90% or more of herbicidal effect and crop phytotoxicity)	5 (90% or more of herbicidal effect and crop phytotoxicity)	5 (90% or more of herbicidal effect and crop phytotoxicity)	5 (90% or more of herbicidal effect and crop phytotoxicity)	5 (90% or more of herbicidal effect and crop phytotoxicity)	5 (90% or more of herbicidal effect and crop phytotoxicity)	5 (90% or more of herbicidal effect and crop phytotoxicity)	5 (90% or more of herbicidal effect and crop phytotoxicity)	5 (90% or more of herbicidal effect and crop phytotoxicity)
CCCCCCn1c(C(F)(F)F)ccc(C(=O)C2=C(O)C3CCC(C3)C2=O)c1=O (stereo not shown) [III-10]	5 (90% or more of herbicidal effect and crop phytotoxicity)	5 (90% or more of herbicidal effect and crop phytotoxicity)	5 (90% or more of herbicidal effect and crop phytotoxicity)	5 (90% or more of herbicidal effect and crop phytotoxicity)	5 (90% or more of herbicidal effect and crop phytotoxicity)	5 (90% or more of herbicidal effect and crop phytotoxicity)	5 (90% or more of herbicidal effect and crop phytotoxicity)	5 (90% or more of herbicidal effect and crop phytotoxicity)	5 (90% or more of herbicidal effect and crop phytotoxicity)	4 (70 to less than 90% of herbicidal effect and crop phytotoxicity)	5 (90% or more of herbicidal effect and crop phytotoxicity)
O=C(C1=C(O)C2CCC(C2)C1=O)c1ccc(C(F)(F)F)n(C2CCCC2)c1=O (stereo not shown) [III-11]	5 (90% or more of herbicidal effect and crop phytotoxicity)	5 (90% or more of herbicidal effect and crop phytotoxicity)	5 (90% or more of herbicidal effect and crop phytotoxicity)	4 (70 to less than 90% of herbicidal effect and crop phytotoxicity)	4 (70 to less than 90% of herbicidal effect and crop phytotoxicity)	5 (90% or more of herbicidal effect and crop phytotoxicity)	5 (90% or more of herbicidal effect and crop phytotoxicity)	5 (90% or more of herbicidal effect and crop phytotoxicity)	5 (90% or more of herbicidal effect and crop phytotoxicity)	5 (90% or more of herbicidal effect and crop phytotoxicity)	5 (90% or more of herbicidal effect and crop phytotoxicity)
